Test results as given in patent US20030161893A1, “PTPase inhibitors and methods of using the same” (priority 2001, published 2003).

Assays:
[1] = test system: A549 cells; assay: Cell growth assay (MTT), A549 lung cancer cells; assay type: cell-based, human; settings: 100 μg/ml, day 6
Experimental: (§1) NIH3T3 (Yi, et al., Blood 85, 87 (1995)), WM9 (Forsberg, et al., Proc. Nat. Acad Sci. USA 90, 393 (1993)), DU145 (Mickey, et al., Cancer Res. 37, 4049 (1977)), LoVo (Drewinko, et al., Cancer Res. 36, 467 (1976)), HEY (Buick, et al., Cancer Res. 45, 3668 (1985)), U251 (Yoshida, et al., Cancer 50, 410 (1982)), A549 (Giard, et al., J. Natl. Cancer Inst. 51, 1417 (1973)) and SK-N-SH (Helson, et al., Cancer Res. 35, 2594 (1975)) cell lines have been described and were cultured in RPMI 1640 supplemented with 10% fetal calf serum (FCS). For measurement of sodium stibogluconate effects on cell growth in vitro, cells were cultured in the absence (−) or presence (+) of various amounts of sodium stibogluconate for 6 days with viable cells quantified by MTT assays (Mosmann, J. Imunol. Methods 65, 55 (1983)). Percentages of growth inhibition by sodium stibogluconate were calculated (+/−×%).

[2] = cited from earlier work
[3] = test system: DU145R cells; assay: Cell growth assay (MTT), DU145R cells; assay type: cell-based, human; settings: day 6 culture
Experimental: DU145 cells were cultured in the presence of sodium stibogluconate (100 μg/ml) in 48 well plates for 3 weeks. Cells from a well containing a single colony were transferred to flasks, cultured in sodium stibogluconate-free medium for 3 weeks and used as DU145R cells for further characterization. Growth of DU145R cells in the absence or presence of sodium stibogluconate in day 6 culture was determined by MTT assays. cDNAs of the coding region of PRLs were derived by RT-PCR from DU145 and DU145R cells and sequenced using primers described below.

[4] = target: T1, Flag-PRL-1 (Homo sapiens, UniProt Q93096); assay: Immunocomplex PTPase assay, Flag-PRL-1 NIH3T3 transfectants; assay type: cell-based; settings: cells treated 5 min
T1 construct: expressed in transfected cells
Experimental: Immunocomplex PTPase assays were performed to assess the effects of sodium stibogluconate on intracellular PTPases. Cells were untreated or treated with sodium stibogluconate for 5 minutes, washed with fresh medium and then lysed in cold lysis buffer (50 mM Tris, pH 7.4; 150 mM NaCl; 1% NP40; 2 mM PMSF; 20 ,g/ml of Aprotinin). The lysates were incubated with an anti-Flag antibody in immunoprecipitation assays. The immunocomplexes were collected with protein G sepharose beads (Pharmacia) and washed in cold lysis buffer for 4 times. […] 100 μL of malachite green solution (UBI) was added to each reaction prior to measurement of OD660 to quantify the amounts of free phosphate cleaved by the PTPases from the peptide substrate (Pathak et al., J. Imumol. 167, 3391 (2001)). The remaining 10% contents of individual samples were analyzed by SDS-PAGE/Western blotting to quantify the relative amounts of the phosphatase proteins. […]
The effects of sodium stibogluconate on intracellular PTPases were assessed using NIH3T3 or WM9 transfectants. […]

[5] = test system: PML/RAR-alpha chimeric protein; assay: PML/RAR-alpha chimeric protein expression in NB4 cells; assay type: cell-based, human
[6] = test system: Stat1; assay: IFN-alpha-induced Stat1 tyrosine phosphorylation, DR cells; assay type: cell-based, human
Experimental: (§2) For induction of Stat1 tyrosine phosphorylation by IFN-alpha in the absence or presence of sodium stibogluconate, cells grown in 10% FCS RPMI 1640 medium at 37° C. were stimulated with IFN-alpha (50 u/ml) for various time points and treated with or without sodium stibogluconate for 5 minutes prior to termination by lysing the cells in cold lysis buffer (1% NP-40; 50 mM Tris, pH 7.4; 100 mM NaCl; 1 mM EDTA, 10% glycerol, 10 mM sodium molybdic acid and 4 mM AEBSF).
(§3) Cell lysates were prepared by lysing cells in cold lysis buffer for 30 min and cleared by centrifuging at 14,000 rpm at 4° C. for 15 min. For SDS-PAGE, cell lysates were mixed with equal volume of 2×SDS-PAGE sample buffer, heated at 90° C. for 5 min and separated in 10% SDS-PAGE gels. Cellular proteins in SDS-PAGE gels were transferred to nitrocellulose membrane (Schleicher & Schuell, Keene, N.H.), blocked in 5% milk, probed with antibodies and detected by using an enhanced chemiluminescence kit (ECL, Amersham, Arlington Heights, Ill.).

[7] = test system: AML-3 cells; assay: AML-3 cell differentiation; assay type: cell-based, human
[8] = test system: DU145 cells; assay: Cell proliferation assay (MTT), DU145 prostate cancer cells; assay type: cell-based, human
Experimental: (§4) For cell proliferation assays, cells were grown in 10% FCS culture medium containing various amounts of IFNs and/or sodium stibogluconate in 96 well plates and cultured at 37° C. for 3 or 6 days as indicated. The numbers of viable cells in proliferation assays were determined by MTT assays as described in Phatak et al., J. Immunol. 167, 3391 (2001).
as §1

[9] = test system: C42 cells; assay: Cell proliferation assay (MTT), C42 prostate cancer cells; assay type: cell-based, human
Experimental: as §4

[10] = test system: Stat1; assay: IFN-alpha-induced Stat1 tyrosine phosphorylation, WM35 cells; assay type: cell-based, human
Experimental: as §2, §3

[11] = test system: MDA231 cells; assay: Cell proliferation assay (MTT), MDA231 breast cancer cells; assay type: cell-based, human
Experimental: as §4

[12] = 50 μg/ml and 100 μg/ml, day 6 culture

T1 sequence (Q93096 whole entry): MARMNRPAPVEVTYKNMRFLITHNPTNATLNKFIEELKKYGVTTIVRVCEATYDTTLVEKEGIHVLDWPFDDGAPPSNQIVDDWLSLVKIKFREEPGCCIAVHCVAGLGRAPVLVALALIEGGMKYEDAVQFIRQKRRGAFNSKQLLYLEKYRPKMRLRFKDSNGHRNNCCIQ

For `O.O.O.O.O.O.O.O.O.O=C([O-])[C@@H]1[O][Sb]2([O-])([O][Sb]34([OH])[O][C@H]([C@H](O)CO)[C@H]([O]3)[C@H](C(=O)[O-])[O]4)[O][C@H]([C@H](O)CO)[C@@H]1[O]2.[Na+].[Na+].[Na+]` [sodium stibogluconate], the “cell killing, A549” value [1] is given as “near-complete cell killing”, the “serum levels at standard dosage for leishmaniasis treatment” value ([2]; 10-20 mg/kg/day) is given as no less than 10000 ng/mL and the “clinical side effects at higher dosages” value ([2]; human, in vivo) is given as “reversible nonspecific ECG changes and renal defects”. For the same compound, the “clinical tolerability at therapeutic dosages” value ([2]; human, in vivo) was “well tolerated”, the “growth of DU145R cells versus parental DU145” value [3] was “growth resistance to sodium stibogluconate” and the “PTPase activity of anti-Flag immunocomplexes, Flag-PRL-1” value [4] was “little PTPase activities”. For the same compound, the “expression levels of PML/RAR-alpha chimeric protein” value [5] was “no detectable effect”, the “IFN-alpha-induced Stat1 tyrosine phosphorylation versus control” value ([6]; 10 μg/ml, 30 min post-stimulation) was “two folds greater than control” and the “Stat1 tyrosine phosphorylation by drug alone” value ([6]; absence of IFN-alpha) was “failed to induce Stat1 tyrosine phosphorylation”. The “differentiation of AML-3 cells” value [7] was “inducing differentiation”, the “killing of DU145 cells, single agent” value [8, 12] was “killed all cells” and the “cell killing, DU145” value ([8]; 100 μg/ml, day 6) was “near-complete cell killing”. The “IFN-alpha-induced growth inhibition of DU145 in presence of drug” value ([8]; day 6) was “augmented”, the “sensitivity of C42 cells” value [9] was “highly resistant” and the “IFN-alpha-induced Stat1 tyrosine phosphorylation” value [10] was “failed to enhance”. The “killing of MDA231 cells, single agent” value [11, 12] was “killed all cells” and the “IFN-alpha-induced growth inhibition of MDA231 in presence of drug” value ([11]; day 6) was “augmented”.
